Experimental data: patent US6916808B2, “2-thio-4h-3, 1-benzoxazin-4-one derivatives for use as enzyme inhibitors” (Alizyme Therapeutics Limited, priority 2000, dated 2005)

Target: T1, porcine pancreatic lipase (Sus scrofa, UniProt P00591)
T1 sequence (P00591 1-450): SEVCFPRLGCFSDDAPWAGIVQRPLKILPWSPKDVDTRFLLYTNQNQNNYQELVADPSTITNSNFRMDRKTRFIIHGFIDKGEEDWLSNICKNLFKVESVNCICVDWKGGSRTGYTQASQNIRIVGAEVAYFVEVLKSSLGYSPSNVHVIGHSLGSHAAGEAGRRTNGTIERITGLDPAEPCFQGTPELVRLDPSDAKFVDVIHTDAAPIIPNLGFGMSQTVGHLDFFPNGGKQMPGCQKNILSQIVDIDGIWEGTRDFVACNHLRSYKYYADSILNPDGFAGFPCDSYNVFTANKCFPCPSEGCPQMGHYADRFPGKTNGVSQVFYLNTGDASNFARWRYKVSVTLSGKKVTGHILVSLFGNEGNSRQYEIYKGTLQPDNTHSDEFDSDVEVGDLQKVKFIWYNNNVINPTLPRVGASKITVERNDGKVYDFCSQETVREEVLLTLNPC
Assay: Lipase enzyme activity, NaOH titration method (lipid micelles)
Assay type: biochemical
Details: NaOH titration assay; system containing lipid micelles
Procedure: Measurement of Lipase Enzyme Activity Using a NaOH Titration Method
The inhibitory activity of the selected compounds to pancreatic lipase was measured in the assay described in Pasquier et al; 1996, Vol 7, Nutritional Biochemistry, 293-302.
Log dose/response curves were constructed using a range of inhibitor concentrations.
Selected benzoxazinone compounds were tested in the NaOH titration assay. In this assay, the activity of porcine pancreatic lipase in a system containing lipid micelles is recorded. These conditions are therefore similar to those encountered in the gastrointestinal tract.

| Structure (SMILES) | IC50 [nM] |
| --- | --- |
| Cc1ccc2nc(Sc3ccccc3)oc(=O)c2c1 [Compound 4, 6-Methyl-2-phenylthio-4H-3,1-benzoxazin-4-one] | < 1000 |
| Cc1ccc2nc(SCCCCCCCCCCc3ccccc3)oc(=O)c2c1 [Compound 5, 6-Methyl-2-(10-phenyldecyl)-thio-4H-3,1-benzoxazin-4-one] | < 1000 |
